Assay results published in ChEMBL document CHEMBL3885861, “Open TG-GATES”.

Species: Rattus norvegicus
Assay: Open TG-GATES - Regimen: Single
Format: toxicity, organism-based, Sprague-Dawley
Design: regimen Single, gender Male, age 6 weeks
Details: in vivo, ip, 0 mg/kg, route intraperitoneal injection, dose level Control; for APTT / Bas / Eos / Fbg / Hb / Ht / Lym / MCH / MCHC / MCV / Mono / Neu / PT / Plat / RBC / Ret / WBC: tissue Blood; for KIDNEY_L / KIDNEY_R / KIDNEY_TOTAL: tissue Kidney; for LIVER: tissue Liver; for A/G / ALP / ALT / AST / BUN / CRE / Ca / Cl / DBIL / GLC / IP / K / LDH / Na / PL / RALB / TBIL / TC / TG / TP / gamma-GTP: tissue Plasma

## CCCCS(=N)(=O)CCC(N)C(=O)O (configuration not stated) [BUTHIONINE SULFOXIMINE]
3 h
  TERMINAL_BW: 217.4 g
  APTT: 16.3 s
  Bas: 0%
  Eos: 0.6%
  Fbg: 214.6 mg/dL
  Hb: 13.1 g/dL
  Ht: 39.2%
  Lym: 66.4%
  MCH: 21.9 pg
  MCHC: 33.4%
  MCV: 65.6 fL
  Mono: 10%
  Neu: 23.4%
  PT: 11.9 s
  Plat: 108.9 x10_4/uL
  RBC: 598.2 x10_4/ul
  Ret: 8.3%
  WBC: 104.5 x10_2/uL
  KIDNEY_L: 1 g
  KIDNEY_R: 1 g
  KIDNEY_TOTAL: 2 g
  LIVER: 10.4 g
  A/G: 2.3
  ALP: 962.6 IU/L
  ALT: 44 IU/L
  AST: 81 IU/L
  BUN: 12.8 mg/dL
  CRE: 0.5 mg/dL
  Ca: 10.9 mg/dL
  Cl: 104.4 meq/L
  DBIL: 0.086 mg/dL
  GLC: 190 mg/dL
  IP: 10.5 mg/dL
  K: 4.6 meq/L
  LDH: 100.4 IU/L
  Na: 140.6 meq/L
  PL: 139.6 mg/dL
  RALB: 3.7 g/dL
  TBIL: 0.4 mg/dL
  TC: 76 mg/dL
  TG: 63.8 mg/dL
  TP: 5.4 g/dL
  gamma-GTP: 1.2 IU/L
6 h
  TERMINAL_BW: 211.9 g
  APTT: 16.7 s
  Bas: 0%
  Eos: 0.8%
  Fbg: 221 mg/dL
  Hb: 13.3 g/dL
  Ht: 39.9%
  Lym: 68.2%
  MCH: 21.9 pg
  MCHC: 33.3%
  MCV: 65.9 fL
  Mono: 5%
  Neu: 26%
  PT: 10.8 s
  Plat: 112.3 x10_4/uL
  RBC: 605.2 x10_4/ul
  Ret: 9.1%
  WBC: 106.4 x10_2/uL
  KIDNEY_L: 1 g
  KIDNEY_R: 1 g
  KIDNEY_TOTAL: 1.9 g
  LIVER: 9.5 g
  A/G: 2
  ALP: 754.6 IU/L
  ALT: 38.2 IU/L
  AST: 68 IU/L
  BUN: 11.4 mg/dL
  CRE: 0.7 mg/dL
  Ca: 10.9 mg/dL
  Cl: 105.6 meq/L
  DBIL: 0.014 mg/dL
  GLC: 197.6 mg/dL
  IP: 9.8 mg/dL
  K: 4.9 meq/L
  LDH: 58.2 IU/L
  Na: 140.2 meq/L
  PL: 139.4 mg/dL
  RALB: 3.5 g/dL
  TBIL: 0.4 mg/dL
  TC: 78.2 mg/dL
  TG: 62.8 mg/dL
  TP: 5.3 g/dL
  gamma-GTP: 1.6 IU/L
9 h
  TERMINAL_BW: 214.6 g
  APTT: 17.1 s
  Bas: 0%
  Eos: 1%
  Fbg: 231 mg/dL
  Hb: 13.4 g/dL
  Ht: 40.5%
  Lym: 74.8%
  MCH: 21.5 pg
  MCHC: 33%
  MCV: 65.1 fL
  Mono: 5.6%
  Neu: 19%
  PT: 11 s
  Plat: 114 x10_4/uL
  RBC: 622.2 x10_4/ul
  Ret: 9.5%
  WBC: 101.1 x10_2/uL
  KIDNEY_L: 1 g
  KIDNEY_R: 1 g
  KIDNEY_TOTAL: 1.9 g
  LIVER: 8.9 g
  A/G: 2.1
  ALP: 838 IU/L
  ALT: 34.4 IU/L
  AST: 65.8 IU/L
  BUN: 12.8 mg/dL
  CRE: 0.5 mg/dL
  Ca: 11 mg/dL
  Cl: 106 meq/L
  DBIL: 0.006 mg/dL
  GLC: 203.4 mg/dL
  IP: 10.3 mg/dL
  K: 4.9 meq/L
  LDH: 60.8 IU/L
  Na: 139.2 meq/L
  PL: 146.6 mg/dL
  RALB: 3.8 g/dL
  TBIL: 0.3 mg/dL
  TC: 85 mg/dL
  TG: 57 mg/dL
  TP: 5.6 g/dL
  gamma-GTP: 1.2 IU/L
24 h
  TERMINAL_BW: 226.3 g
  APTT: 17.2 s
  Bas: 0%
  Eos: 1%
  Fbg: 231.6 mg/dL
  Hb: 13.6 g/dL
  Ht: 41%
  Lym: 75.4%
  MCH: 21.3 pg
  MCHC: 33.1%
  MCV: 64.5 fL
  Mono: 8.4%
  Neu: 15.2%
  PT: 11.4 s
  Plat: 115.5 x10_4/uL
  RBC: 636.4 x10_4/ul
  Ret: 8.8%
  WBC: 88.5 x10_2/uL
  KIDNEY_L: 1 g
  KIDNEY_R: 1 g
  KIDNEY_TOTAL: 2 g
  LIVER: 11 g
  A/G: 1.8
  ALP: 826.4 IU/L
  ALT: 37.8 IU/L
  AST: 63.2 IU/L
  BUN: 17.8 mg/dL
  CRE: 0.5 mg/dL
  Ca: 11.2 mg/dL
  Cl: 103.6 meq/L
  DBIL: 0.008 mg/dL
  GLC: 210.6 mg/dL
  IP: 9 mg/dL
  K: 4.8 meq/L
  LDH: 89.2 IU/L
  Na: 139.6 meq/L
  PL: 163.4 mg/dL
  RALB: 3.7 g/dL
  TBIL: 0.3 mg/dL
  TC: 83.2 mg/dL
  TG: 109.2 mg/dL
  TP: 5.8 g/dL
  gamma-GTP: 1.6 IU/L
